# Measurements as given in patent publication US20250136577A1, “HETEROCYCLIC DERIVATIVES AS MALT1 INHIBITORS” (C4X Discovery Limited, priority 2022, published 2025).
# Columns and labels:
# [1] = molecular target: FL hMALT1 enzyme (Homo sapiens (Human), UniProt Q9UDY8); assay: MALT1 Protease Assay 2 (Assay 2), higher sensitivity, cleavage of fluorogenic tetrapeptide substrate; assay type: biochemical; conditions: FL hMALT1 1-10 nM, Ac-LVSR-AMC 100 μM, 0.7 M sodium citrate, 30 min preincubation, 60 min read
# Sequence of FL hMALT1 enzyme (Q9UDY8 whole entry): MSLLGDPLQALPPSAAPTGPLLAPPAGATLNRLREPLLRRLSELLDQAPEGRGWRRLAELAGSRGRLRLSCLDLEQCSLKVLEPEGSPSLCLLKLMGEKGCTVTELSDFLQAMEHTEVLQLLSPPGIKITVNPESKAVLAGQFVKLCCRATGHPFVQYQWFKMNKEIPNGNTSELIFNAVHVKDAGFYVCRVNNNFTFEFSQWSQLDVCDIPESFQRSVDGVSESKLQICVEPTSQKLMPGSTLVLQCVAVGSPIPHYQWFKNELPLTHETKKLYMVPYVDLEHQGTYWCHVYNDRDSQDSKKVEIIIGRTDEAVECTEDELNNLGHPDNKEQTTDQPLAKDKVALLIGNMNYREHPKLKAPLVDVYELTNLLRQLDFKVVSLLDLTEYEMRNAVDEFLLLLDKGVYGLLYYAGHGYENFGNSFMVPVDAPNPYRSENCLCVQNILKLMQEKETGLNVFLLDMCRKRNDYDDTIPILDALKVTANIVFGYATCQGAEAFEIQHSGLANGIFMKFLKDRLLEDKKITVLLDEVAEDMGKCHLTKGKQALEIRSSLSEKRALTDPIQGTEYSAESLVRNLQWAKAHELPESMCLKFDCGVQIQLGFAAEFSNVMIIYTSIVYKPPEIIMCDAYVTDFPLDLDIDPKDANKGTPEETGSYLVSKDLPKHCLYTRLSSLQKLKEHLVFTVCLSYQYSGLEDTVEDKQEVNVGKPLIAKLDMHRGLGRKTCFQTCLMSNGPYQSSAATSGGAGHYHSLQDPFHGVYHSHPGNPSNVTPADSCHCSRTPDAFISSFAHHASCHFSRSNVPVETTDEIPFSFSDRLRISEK
# Summary of the method: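 After 30 min room-temperature preincubation with compound (1% DMSO), enzyme (1-10 nM) cleaved 100 μM Ac-LVSR-AMC in pH 7.0 HEPES buffer containing 0.7 M sodium citrate, CHAPS and TCEP. Fluorescence (ex 360/em 460 nm) signal was taken as 60 min minus time 0. IC50 came from 4-parameter fits of % inhibition.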
# [2] = system: IL-2 release from stimulated Jurkat cells; assay: Human IL-2 Release Phenotypic Assay (Assay 3); assay type: cell-based; conditions: Homo sapiens, Jurkat, 48 h, Jurkat cells (clone E6-1), 200 ng/ml PMA + 300 ng/ml ionomycin, IL-2 in supernatant by ELISA
# Procedure: Human IL-2 Release Phenotypic Assay (Assay 3)
# This assay measured the inhibition by MALT1 inhibitors of the IL-2 release from stimulated Jurkat cells, a human immortalized T lymphocyte cell line. IL-2 production from Jurkat cells is regulated by activation of NFκB signalling, which is in turn regulated by MALT1 protease activity.
# Jurkat cells (clone E6-1, ATCC) were cultured in RPMI1640 supplemented with 10% (v/v) FBS and 1% (v/v) penicillin/streptomycin (100× liquid stocks). Cells were seeded in 96-well white tissue culture-treated plates (Perkin Elmer) at 50 000 cells/well and incubated overnight at 37° C., 5% CO2. Test compounds in DMSO at half-log dilutions were added to the cells and incubated for 30 mins. Final DMSO concentration was 0.5%. Cells were then stimulated with 200 ng/ml PMA+300 ng/ml ionomycin and incubated for 48 hours. IL-2 present in the supernatant was then measured by ELISA according to the kit instructions (ELISA MAX Deluxe Set Human IL-2, BioLegend). % inhibition was calculated for each well, using 30 μM of the commercially available MALT1 inhibitor, MLT-748, for 100% inhibition controls and no compound for 0% inhibition controls. IC50 values were calculated using GraphPad Prism using 4-parameter non-linear regression curve fit.
# [3] = molecular target: MALT1-GS-Ub (6-His-hMALT-1 residues 339-715 fused to ubiquitin) (Homo sapiens (Human), UniProt Q9UDY8); assay: MALT1 Protease Assay 1 (Assay 1), cleavage of fluorogenic tetrapeptide substrate; assay type: biochemical; conditions: MALT1-GS-Ub 300-600 nM, Ac-LVSR-AMC 100 μM, 30 min preincubation, 60 min read
# Sequence of MALT1-GS-Ub (6-His-hMALT-1 residues 339-715 fused to ubiquitin) (Q9UDY8 other isoform, or with tags, fused parts or gaps): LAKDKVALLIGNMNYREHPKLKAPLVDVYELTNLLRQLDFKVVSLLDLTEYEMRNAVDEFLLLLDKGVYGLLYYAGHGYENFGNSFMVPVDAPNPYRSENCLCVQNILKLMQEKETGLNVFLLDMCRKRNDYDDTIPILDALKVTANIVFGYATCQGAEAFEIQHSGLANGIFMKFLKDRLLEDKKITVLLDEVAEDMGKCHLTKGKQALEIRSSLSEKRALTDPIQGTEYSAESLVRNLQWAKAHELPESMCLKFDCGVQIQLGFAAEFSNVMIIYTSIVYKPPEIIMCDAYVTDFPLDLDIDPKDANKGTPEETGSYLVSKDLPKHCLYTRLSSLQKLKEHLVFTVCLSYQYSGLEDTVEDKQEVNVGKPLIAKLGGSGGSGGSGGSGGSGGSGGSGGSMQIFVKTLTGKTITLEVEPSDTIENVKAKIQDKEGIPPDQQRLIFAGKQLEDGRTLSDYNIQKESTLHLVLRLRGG
# Summary of the method: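 E. coli-expressed MALT1-GS-Ub (300–600 nM) preincubated 30 min at room temperature with compound (1% DMSO final), then Ac-LVSR-AMC (100 μM) added in 50 mM HEPES pH 7.0, 25 mM KCl, 0.1% CHAPS, 1 mM TCEP. Fluorescence (ex 360/em 460 nm) change over 60 min gave % inhibition versus no-enzyme and no-compound controls; IC50 from 4-parameter fit.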
smiles,measurement,setting,value
"N#CC1CN(C(=O)Nc2cnc(-n3nccn3)c(C(F)(F)F)c2)c2cccc(Br)c2O1 (stereo not drawn) [Example 6, N-(6-(2H-1,2,3-Triazol-2-yl)-5-(trifluoromethyl)pyridin-3-yl)-8-bromo-2-cyano-2,3-dihydro-4H-benzo[b][1,4]oxazine-4-carboxamide]",IC50,[1],100 nM
same,IC50,[2],2100 nM
same,IC50,[3],700 nM
